Source: patent US10849959B2, “Formulation, dosage form and method of reducing knee pain” (ORTHOTROPHIX, INC., priority 2017, dated 2020)
Where two headings read alike, the source gives them in different places.

Assays:
[1] = test system: subjects with bilateral patello-femoral knee osteoarthritis
Protocol: Eighteen (18) orthopedic, rheumatologic and family practice centers in the U.S. participated in the study.
A Safety Review Committee (SRC) evaluated safety in each dosing cohort. The SRC assessed safety and dose-limiting toxicities, if evident, and determined whether the next higher dosing regimen might be enrolled. Part A were completed and analyzed with regard to safety prior to dose selection and initiation of Part B.
Six (6) subjects were enrolled in 20, 50, and 100 mg cohorts, respectively, and nine (9) subjects were enrolled in 200 mg cohort. Each dosing cohort was reviewed based on safety analysis of dose groups in Part A.
No other doses of drug or placebo were administered. All subjects visited their respective clinical sites at 3, 6, and 12 months after the first dosing for their safety and efficacy assessments.
On the first dosing day, the randomized subjects were assessed for their general health conditions by physical examinations and vital signs. Further, they completed self-reported assessments of the conditions of each of their knees as well as systemic health by the questionnaires of KOOS (Knee injury and Osteoarthritis Outcome Score), which includes subscales of WOMAC (Western Ontario and McMaster Universities Osteoarthritis Index). KOOS is a questionnaire that assesses knee-specific activities of daily living, sports and recreation function, knee-related quality of life, symptom, and knee pain. […] After these assessments, subjects received one intra-articular injection in each knee, with each injection prepared from the vial(s) marked for that knee. One knee received TPX-100, and the contralateral knee received placebo, in a triple-blind fashion (subject, site, and sponsor all blinded to treatment assignment). Subjects were monitored for adverse events during the injections and for a few hours after the injections. Vital signs were also monitored after the injections.
On the 7th, 14th, and 21st days after the first dosing, subjects received the second, third, and fourth (last) dosing of the same study materials, respectively, as well as safety and adverse event assessments in the same way as the first dosing day.
Subjects returned to their respective study sites at 3, 6 and 12 months after the first dosing day for follow-up evaluations. In addition, the study sites monitored the subject's condition through telephone contact 9 months after the first dosing day. During the 3, 6, and 12 months post-treatment follow-up on-site visits, subjects were evaluated by physical examination, vital signs, serum chemistry, as well as KOOS. Adverse events and concomitant medications were also recorded.

[2] = stated as known, no test described, cited from earlier work
[3] = test system: subjects with bilateral patello-femoral knee osteoarthritis; test: Randomized double-blind placebo-controlled clinical study of TPX-100, efficacy by KOOS/WOMAC patient reported outcomes; type: in vivo, human; settings: for Severity of pain going up or down stairs, treated vs placebo-treated knee (in words): p=0.004; for Pain alleviation in other activities or statuses of KOOS pain: activities other than going up or down stairs (and bending knee fully), any time point; for Knee functions, KOOS ADL (Function of Daily Living) and WOMAC function, treated vs placebo-treated knees: both 6 and 12 months after treatment, FIG. 12
Protocol: For this activity, the peptide of SEQ ID No. 1 was tested for its clinical safety and efficacy on a condition involving cartilage damage in a Phase 2 randomized double-blind controlled clinical trial with mild to severe knee osteoarthritis (OA) patients. See EXAMPLES.
The KOOS ADL (Function of Daily Living) consists of 17 questions asking degree of difficulty in functioning each knee during 17 different activities in daily living. Those 17 activities are broadly ranged from light to heavy duties. With regard to each activity, difficulty of each knee function is scored in 0-4 range where 0 as no difficulty and 4 as the most difficulty. The sum of the scores range from 0 to 68 (4×17), which is then converted to a 0-100 scale is KOOS ADL score. WOMAC function consists of the same questions with same scoring, except the total score range is not converted to 0-100 but remains 0-68.
The KOOS pain domain consists of 9 questions and each question is scored in 0-4 range. The sum of the scores, 0-36 (4×9), which is converted to a 0-100 scale to generate a KOOS pain score. While the first of the 9 questions asks for the frequency of knee pain, the other 8 questions ask for severity of knee pain during different activities or positions, where 0 is “never” experiencing pain and 4 is “always” experiencing pain. These 8 activities range from positions with little to no motion such as “at night while in bed” to those with high joint loading such as “going up or down stairs” (See FIG. 2). WOMAC pain consists of the same questions with the same scoring, except that the total score is not converted to a 100-point scale but remains in the range 0-36.
MRIs of both knees were evaluated by a central reader to determine the ICRS grade (gICRS) of each knee. If the cartilage of patello-femoral compartment in both knees fell within ICRS grades 1-3, or 4 with only focal defects, no defects greater than 1 cm, and all other inclusion criteria were met, with none of the exclusion criteria, the subject was registered. The randomization center randomized each subject to either Right knee active or Left knee active, with the active knee to receive TPX-100 and the contralateral knee to receive identical placebo.
For enrolled subjects, there was within-subject randomization, such that one knee received active drug injections, and the contralateral knee received identical placebo injections. Using subjects as their own control permits reduction of confounders such as weight, activity level, pain threshold, and uncharacterized genetic susceptibilities to OA progression. As two knees within a person form a matched set, the effects of individual-level confounders that are difficult to quantify (e.g. level of activity, genetic and epigenetic factors, pain threshold) are eliminated, increasing the power of the study to detect a treatment effect if one is present.
All KOOS subscale scores were analyzed. The primary analysis was carried out using a two-sided paired t-test at the 5% level of significance. The outcome variable was the difference between the change of the score of each subscale of KOOS from baseline in the treated knee (“Index Knee”) and the change from baseline in the placebo-treated knee (“Control Knee”).
Ninety-three (93) subjects who received 200 mg per dose of TPX-100 in one knee and placebo in contralateral knee were analyzed for efficacy.

[4] = test system: standardized large cartilage defects; settings: four weekly intra-articular injections, cited from earlier work
[5] = 12 months, 200 mg, listed as peptide of SEQ ID No. 1
[6] = 200 mg, listed as peptide of SEQ ID No. 1

Sequence: TDLQERGDNDISPFSGDGQPFKD [TPX-100]
- Dose-limiting toxicities ([1]; Part A, 20, 50, 100 and 200 mg per intra-articular injection, four weekly): no dose-limiting toxicities
- Safety and tolerability of treatments ([1]; throughout the study period): safe and well tolerated
- Severe adverse events related to drug treatment ([1]; throughout the study period): no severe adverse events likely or possibly related to the drug treatment
- Severity of treatment-related adverse events ([1]; throughout the study period): mild or moderate, transient
- Analgesic or anti-inflammatory activities [2]: does not have any analgesic or anti-inflammatory activities
- Analgesic or anti-inflammatory activities ([2]; listed as peptide of SEQ ID No. 1): does not have any anti-inflammatory or analgesic activities
- Function improvement across the 17 activities of KOOS ADL, treated vs placebo-treated knee ([3]; 200 mg): observed in most of the 17 light to heavy activities
- Frequency of overall knee pain, Index vs Control knees (in words) ([3]; 12 months, 200 mg): significantly improved (p=0.04)
- Severity of pain bending knee fully, treated vs placebo-treated knee (in words) ([3]; 12 months, 200 mg): trend (p<0.09) of improvement
- Frequency of overall knee pain, Index vs Control knees (in words) [3, 5]: significantly reduced
- Severity of pain bending knee fully, treated vs placebo-treated knee (in words) [3, 5]: near statistically significant pain alleviation
- Severity of pain going up or down stairs, treated vs placebo-treated knee (in words) ([3]; 12 months, 200 mg): highly significant
- Severity of pain going up or down stairs, treated vs placebo-treated knee (in words) [3, 5]: statistically significant improvement
- Score Change from Baseline to 12 Months, Index: How often do you experience RIGHT/LEFT knee pain? ([3]; KOOS Pain Question 1 (frequency, score 0-4), TPX-100 treated knees, 200 mg intra-articular, 4 weekly doses, 12 months): −0.62
- Difference = [Index score change] − [Control score change]: How often do you experience RIGHT/LEFT knee pain? ([3]; KOOS Pain Question 1, TPX-100 vs placebo treated knees, baseline to 12 months, 200 mg): −0.26
- Score Change from Baseline to 12 Months, Index: Twisting/pivoting on your knee ([3]; KOOS Pain Question 2 (severity, score 0-4), TPX-100 treated knees, 200 mg intra-articular, 4 weekly doses, 12 months): −0.19
- Difference = [Index score change] − [Control score change]: Twisting/pivoting on your knee ([3]; KOOS Pain Question 2, TPX-100 vs placebo treated knees, baseline to 12 months, 200 mg): −0.09
- Score Change from Baseline to 12 Months, Index: Straightening knee fully moving ([3]; KOOS Pain Question 3 (severity, score 0-4), TPX-100 treated knees, 200 mg intra-articular, 4 weekly doses, 12 months): −0.30
- Difference = [Index score change] − [Control score change]: Straightening knee fully moving ([3]; KOOS Pain Question 3, TPX-100 vs placebo treated knees, baseline to 12 months, 200 mg): −0.12
- Score Change from Baseline to 12 Months, Index: Bending knee fully ([3]; KOOS Pain Question 4 (severity, score 0-4), TPX-100 treated knees, 200 mg intra-articular, 4 weekly doses, 12 months): −0.45
- Difference = [Index score change] − [Control score change]: Bending knee fully ([3]; KOOS Pain Question 4, TPX-100 vs placebo treated knees, baseline to 12 months, 200 mg): −0.24
- Score Change from Baseline to 12 Months, Index: Walking on flat surface ([3]; KOOS Pain Question 5 (severity, score 0-4), TPX-100 treated knees, 200 mg intra-articular, 4 weekly doses, 12 months): −0.25
- Difference = [Index score change] − [Control score change]: Walking on flat surface ([3]; KOOS Pain Question 5, TPX-100 vs placebo treated knees, baseline to 12 months, 200 mg): −0.12
- Score Change from Baseline to 12 Months, Index: Going up or down stairs ([3]; KOOS Pain Question 6 (severity, score 0-4), TPX-100 treated knees, 200 mg intra-articular, 4 weekly doses, 12 months): −0.51
- Difference = [Index score change] − [Control score change]: Going up or down stairs ([3]; KOOS Pain Question 6, TPX-100 vs placebo treated knees, baseline to 12 months, 200 mg): −0.33
- Score Change from Baseline to 12 Months, Index: At night while in bed ([3]; KOOS Pain Question 7 (severity, score 0-4), TPX-100 treated knees, 200 mg intra-articular, 4 weekly doses, 12 months): −0.19
- Difference = [Index score change] − [Control score change]: At night while in bed ([3]; KOOS Pain Question 7, TPX-100 vs placebo treated knees, baseline to 12 months, 200 mg): 0.00
- Difference = [Index score change] − [Control score change]: Sitting or lying ([3]; KOOS Pain Question 8, TPX-100 vs placebo treated knees, baseline to 12 months, 200 mg): −0.02
- Score Change from Baseline to 12 Months, Index: Standing upright ([3]; KOOS Pain Question 9 (severity, score 0-4), TPX-100 treated knees, 200 mg intra-articular, 4 weekly doses, 12 months): −0.34
- Difference = [Index score change] − [Control score change]: Standing upright ([3]; KOOS Pain Question 9, TPX-100 vs placebo treated knees, baseline to 12 months, 200 mg): −0.16
- Pain alleviation in other activities or statuses of KOOS pain ([3]; 200 mg): did not show statistically significant improvements
- Pain alleviation in other activities or statuses of KOOS pain [3, 6]: did not show pain alleviation with statistical significance or trend
- KOOS Sports and Recreation subscale, Index vs Control knees ([3]; at 6 months, 200 mg): clinically meaningful and statistically significant improvement
- KOOS knee related quality of life (QOL) subscale, Index vs Control knees ([3]; at 12 months, 200 mg): clinically meaningful and statistically significant improvement
- Total KOOS pain subscale, Index vs Control knees ([3]; at 12 months, 200 mg): clinically meaningful and statistical trend (p<0.09) of improvement
- Total KOOS pain subscale, Index vs Control knees ([3]; at 12 months, 200 mg, listed as peptide of SEQ ID No. 1): clinically meaningful improvement
- Knee functions, KOOS ADL (Function of Daily Living) and WOMAC function, treated vs placebo-treated knees ([3]; 200 mg): clinically meaningful and statistically significant (p<0.05) improvement
- Knee functions, KOOS ADL (Function of Daily Living) and WOMAC function, treated vs placebo-treated knees [3, 6]: clinically meaningful and highly statistically significant (p=0.008) improvement
- Total KOOS pain score, treated vs placebo treated knees ([3]; until 6 months after the treatment, 200 mg): very similar
- Articular cartilage regeneration compared to vehicle control group ([4]; 125 mg and 250 mg, 6 months post-surgery): histologically-confirmed and statistically significant articular cartilage regeneration
- Safety and tolerability in goats ([4]; freely ambulatory animals): safe and well-tolerated
